Data reported in ChEMBL document CHEMBL1201862, “PubChem BioAssay data set” (2004).
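Protocol summary: plate cells (96-well), add compound at 5 concentrations, incubate 48 h, interpolate endpoints linearly. GI50 is the concentration that inhibits growth by half.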 Activity calls are given as the source filed them. No stated cut-off is given here; in the data, active = GI50 up to about 1.1 µM and inactive = higher.

Key:
Assay in all cases: NCI tumour cell line growth inhibition, 48 h
IGROV-1 = tested on: IGROV-1
BT-549 = tested on: BT-549
CAKI-1 = tested on: CAKI-1
UO-31 = tested on: UO-31
OVCAR-4 = tested on: OVCAR-4
SK-MEL-5 = tested on: SK-MEL-5
SK-MEL-2 = tested on: SK-MEL-2
OVCAR-3 = tested on: OVCAR-3
HT-29 = tested on: HT-29
HL-60 = tested on: HL-60
HCC 2998 = tested on: HCC 2998
Malme-3M = tested on: Malme-3M
HCT-116 = tested on: HCT-116
MOLT-4 = tested on: MOLT-4
Hs-578T = tested on: Hs-578T
NCI-H460 = tested on: NCI-H460
KM12 = tested on: KM12
A549 = tested on: A549
NCI-H522 = tested on: NCI-H522

SMILES	GI50 (IGROV-1)	GI50 (BT-549)	GI50 (CAKI-1)	GI50 (UO-31)	GI50 (OVCAR-4)	GI50 (SK-MEL-5)	GI50 (SK-MEL-2)	GI50 (OVCAR-3)	GI50 (HT-29)	GI50 (HL-60)	GI50 (HCC 2998)	GI50 (Malme-3M)	GI50 (HCT-116)	GI50 (MOLT-4)	GI50 (Hs-578T)	GI50 (NCI-H460)	GI50 (KM12)	GI50 (A549)	GI50 (NCI-H522)
CCOC(=O)/C(C#N)=C1\c2c([nH]c(=S)[nH]c2=O)Oc2ccc3ccccc3c21	> 100 µM (inactive)	> 100 µM (inactive)	75 µM (inactive)	20 µM (inactive)	> 100 µM (inactive)	14 µM (inactive)	13 µM (inactive)	23.7 µM (inactive)	12.4 µM (inactive)	2.64 µM (inactive)	59.4 µM (inactive)	68.7 µM (inactive)	67.3 µM (inactive)	11.2 µM (inactive)	76.6 µM (inactive)	0.0857 µM (active)	> 100 µM (inactive)	1.67 µM (inactive)	19 µM (inactive)
O=C1CCCC/C1=C(\Br)I	9.38 µM (inactive)	17.6 µM (inactive)	12.4 µM (inactive)	17.7 µM (inactive)	15.4 µM (inactive)	17.9 µM (inactive)	22.3 µM (inactive)	18 µM (inactive)	12.9 µM (inactive)	2.12 µM (inactive)	4.95 µM (inactive)	5.5 µM (inactive)	12 µM (inactive)	2.11 µM (inactive)	35.4 µM (inactive)	15.3 µM (inactive)	17.1 µM (inactive)	23.3 µM (inactive)	1.56 µM (inactive)
O=C1CSC(c2ccccc2[N+](=O)[O-])N1c1ccc(-c2ccc(-n3c(-c4ccccc4)nc4ccccc4c3=O)cc2)cc1 (stereo not drawn)	57.1 µM (inactive)	> 100 µM (inactive)	> 100 µM (inactive)	29.9 µM (inactive)	75.5 µM (inactive)	42 µM (inactive)	> 100 µM (inactive)	> 100 µM (inactive)	62.2 µM (inactive)	> 100 µM (inactive)	> 100 µM (inactive)	> 100 µM (inactive)	82.6 µM (inactive)	43.2 µM (inactive)	> 100 µM (inactive)	> 100 µM (inactive)	80 µM (inactive)	> 100 µM (inactive)	> 100 µM (inactive)
CC1=CC(=O)N(n2c(-c3ccccc3)n[nH]c2=O)C1=O	> 100 µM (inactive)	> 100 µM (inactive)	> 100 µM (inactive)	> 100 µM (inactive)	> 100 µM (inactive)	> 100 µM (inactive)	> 100 µM (inactive)	> 100 µM (inactive)	> 100 µM (inactive)	> 100 µM (inactive)	> 100 µM (inactive)	> 100 µM (inactive)	> 100 µM (inactive)	> 100 µM (inactive)	> 100 µM (inactive)	> 100 µM (inactive)	> 100 µM (inactive)	> 100 µM (inactive)	> 100 µM (inactive)
CC(=O)OCC1OC(n2c(=O)[nH]c(=O)c3sccc32)C(Br)C1OC(C)=O (stereo not drawn)	> 100 µM (inactive)	> 100 µM (inactive)	> 100 µM (inactive)	> 100 µM (inactive)	> 100 µM (inactive)	> 100 µM (inactive)	> 100 µM (inactive)	> 100 µM (inactive)	> 100 µM (inactive)	> 100 µM (inactive)	> 100 µM (inactive)	> 100 µM (inactive)	> 100 µM (inactive)	> 100 µM (inactive)	> 100 µM (inactive)	> 100 µM (inactive)	> 100 µM (inactive)	> 100 µM (inactive)	> 100 µM (inactive)
O=C1C(N2CCN(c3ccccn3)CC2)=C(Cl)C(=O)c2ncccc21	> 7 µM (inactive)	> 10 µM (inactive)	0.433 µM (active)	3.27 µM (inactive)	0.637 µM (active)	1.79 µM (inactive)	2.31 µM (inactive)	1.89 µM (inactive)	2.88 µM (inactive)	0.105 µM (active)	> 4.63 µM (inactive)	1.3 µM (inactive)	1.71 µM (inactive)	1.83 µM (inactive)	> 4.49 µM (inactive)	> 10 µM (inactive)	> 4.33 µM (inactive)	> 10 µM (inactive)	0.142 µM (active)
C=C1C[C@@H](O)[C@@H](Br)C(C)(C)[C@@]12C=CC(=O)CC2	3.58 µM (inactive)	> 100 µM (inactive)	> 100 µM (inactive)	> 96.4 µM (inactive)	> 100 µM (inactive)	> 100 µM (inactive)	> 78.5 µM (inactive)	> 100 µM (inactive)	> 100 µM (inactive)	> 100 µM (inactive)	> 78.7 µM (inactive)	> 100 µM (inactive)	> 86.5 µM (inactive)	> 100 µM (inactive)	> 100 µM (inactive)	> 100 µM (inactive)	1.52 µM (inactive)	> 100 µM (inactive)	> 100 µM (inactive)
